# Experimental data from patent US11414424B2, “Cardiac sarcomere inhibitors” (Cytokinetics, Inc., priority 2018, dated 2022).
# System: bovine cardiac myofibrils
# Assay: Myofibril assay: PK/LDH-coupled steady-state ATPase activity of skinned bovine cardiac myofibrils
# Type: biochemical
# Details: Ca2+ activating to 75% of maximal rate
# Description: To evaluate the effect of compounds on the ATPase activity of full-length cardiac myosin in the context of the native sarcomere, skinned myofibril assays were performed. Bovine cardiac myofibrils were obtained by homogenizing bovine cardiac left ventricular tissue in the presence of a detergent such as triton X-100. Such treatment removes membranes and a majority of the soluble cytoplasmic proteins but leaves intact the cardiac sarcomeric acto-myosin apparatus. Myofibril preparations retain the ability to hydrolyze ATP in a Ca^2+ regulated manner. ATPase activities of such myofibril preparations in the presence and absence of compounds were assayed at Ca^2+ concentrations activating to a defined fraction of the maximal rate (i.e., […], 75%). Small molecule agents were assessed for their ability to inhibit the steady-state ATPase activity of bovine cardiac myofibrils using pyruvate kinase and lactate dehydrogenase (PK/LDH)-coupled enzyme system. This assay regenerates myosin-produced ADP into ATP by oxidizing NADH, producing an absorbance change at 340 nm. Prior to testing small molecule agents, the bovine cardiac myofibrils were assessed for their calcium responsiveness and the calcium concentration that achieves either a 50% (pCa50) or 75% (pCa75) activation of the myofibril system was chosen as the final condition for assessing the inhibitory activity of the small molecule agents. All enzymatic activity was measured in a buffered solution containing 12 mM PIPES (piperazine-N,N′-bis(2-ethanesulfonic acid), 2 mM magnesium chloride at pH 6.8 (PM 12 buffer). Final assay conditions were 1 mg/mL of bovine cardiac myofibrils, 4 U/mL pyruvate kinase, 6 U/mL lactate dehydrogenase, 50 μM ATP, 0.1 mg/mL BSA (bovine serum albumin), 10 ppm antifoam, 1 mM DTT, 0.5 mM NADH, 1.5 mM PEP, 0.6 mM EGTA, and an amount of CaCl2 sufficient to achieve either 50% or 75% activation of the myofibril ATPase activity. Results for compounds tested are provided in Table A. Compounds tested were prepared in accordance with the synthetic procedures described herein.
row,SMILES,CDMF75 IC15 [nM]
1,"N#Cc1ccc(N2CC(=O)N(Cc3ccc(Cl)cc3)C3(CCN(C(=O)C4COC4)C3)C2=O)c(F)c1 (stereo in doubt) [Compound 210, (S)-4-(6-(4-chlorobenzyl)-2-(oxetane-3-carbonyl)-7,10-dioxo-2,6,9-triazaspiro[4.5]decan-9-yl)-3-fluorobenzonitrile]",1700
2,"N#Cc1ccc(N2CC(=O)N(Cc3ccc(Cl)cc3)C3(CCN(C(=O)C4CCC4)C3)C2=O)c(F)c1 (stereo in doubt) [Compound 212, (S)-4-(6-(4-chlorobenzyl)-2-(cyclobutanecarbonyl)-7,10-dioxo-2,6,9-triazaspiro[4.5]decan-9-yl)-3-fluorobenzonitrile]",900
3,"N#Cc1ccc(N2CC(=O)N(Cc3ccc(Cl)cc3)C3(CCN(C(=O)C4CC4)C3)C2=O)c(F)c1 (stereo in doubt) [Compound 213, (S)-4-(6-(4-chlorobenzyl)-2-(cyclopropanecarbonyl)-7,10-dioxo-2,6,9-triazaspiro[4.5]decan-9-yl)-3-fluorobenzonitrile]",400
4,"N#Cc1ccc(N2CC(=O)N(Cc3ccc(C(F)(F)F)cc3)C3(CCN(C=O)C3)C2=O)c(F)c1 (stereo in doubt) [Compound 222, (S)-3-fluoro-4-(2-formyl-7,10-dioxo-6-(4-(trifluoromethyl)benzyl)-2,6,9-triazaspiro[4.5]decan-9-yl)benzonitrile]",700
5,"CC(C)N1CC(=O)N(Cc2ccc(C(F)(F)F)cc2)C2(CCN(C(=O)NC3CCC3)C2)C1=O (stereo not shown) [Compound 1, N-cyclobutyl-9-isopropyl-7,10-dioxo-6-(4-(trifluoromethyl)benzyl)-2,6,9-triazaspiro[4.5]-decane-2-carboxamide]",9500
6,"CC(C)N1CC(=O)N(Cc2ccc(Cl)cc2)C2(CN(c3ccccc3)C2)C1=O [Compound 2, 5-(4-chlorobenzyl)-8-isopropyl-2-phenyl-2,5,8-triazaspiro[3.5]nonane-6,9-dione]",1800
7,"CC(C)N1CC(=O)N(Cc2ccc(Cl)cc2)C2(CN(c3ccc(F)cc3)C2)C1=O [Compound 3, 5-(4-chlorobenzyl)-2-(4-fluorophenyl)-8-isopropyl-2,5,8-triazaspiro[3.5]-nonane-6,9-dione]",1700
8,"CC(C)N1CC(=O)N(Cc2ccc(Cl)cc2)C2(CN(c3ccc(Cl)cc3)C2)C1=O [Compound 4, 5-(4-chlorobenzyl)-2-(4-chlorophenyl)-8-isopropyl-2,5,8-triazaspiro[3.5]-nonane-6,9-dione]",2500
9,"CC(C)N1CC(=O)N(Cc2ccc(Cl)cc2)C2(CN(c3cccc(Cl)c3)C2)C1=O [Compound 5, 5-(4-chlorobenzyl)-2-(3-chlorophenyl)-8-isopropyl-2,5,8-triazaspiro[3.5]-nonane-6,9-dione]",1900
10,"CC(C)N1CC(=O)N(Cc2ccc(Cl)cc2)C2(CN(c3ccccn3)C2)C1=O [Compound 6, 5-(4-chlorobenzyl)-8-isopropyl-2-(pyridin-2-yl)-2,5,8-triazaspiro[3.5]-nonane-6,9-dione]",900
11,"CC(C)N1CC(=O)N(Cc2ccc(Cl)cc2)C2(CN(c3cccnc3)C2)C1=O [Compound 7, 5-(4-chlorobenzyl)-8-isopropyl-2-(pyridin-3-yl)-2,5,8-triazaspiro[3.5]-nonane-6,9-dione]",1900
12,"CC(C)N1CC(=O)N(Cc2ccc(Cl)cc2)C2(CN(c3ccncc3)C2)C1=O [Compound 8, 5-(4-chlorobenzyl)-8-isopropyl-2-(pyridin-4-yl)-2,5,8-triazaspiro[3.5]-nonane-6,9-dione]",3300
13,"Cc1ccc(N2CC3(C2)C(=O)N(C(C)C)CC(=O)N3Cc2ccc(Cl)cc2)nc1 [Compound 9, 5-(4-chlorobenzyl)-8-isopropyl-2-(5-methyl-pyridin-2-yl)-2,5,8-triazaspiro[3.5]nonane-6,9-dione]",2400
14,"Cc1cc(N2CC3(C2)C(=O)N(C(C)C)CC(=O)N3Cc2ccc(Cl)cc2)ccn1 [Compound 10, 5-(4-chlorobenzyl)-8-isopropyl-2-(2-methyl-pyridin-4-yl)-2,5,8-triazaspiro[3.5]nonane-6,9-dione]",5200
15,"CC(C)N1CC(=O)N(Cc2ccc(Cl)cc2)C2(CN(c3ncccn3)C2)C1=O [Compound 11, 5-(4-chlorobenzyl)-8-isopropyl-2-(pyrimidin-2-yl)-2,5,8-triazaspiro-[3.5]nonane-6,9-dione]",17400
16,"CC(C)N1CC(=O)N(Cc2ccc(Cl)cc2)C2(CN(c3cnccn3)C2)C1=O [Compound 12, 5-(4-chlorobenzyl)-8-isopropyl-2-(pyrazin-2-yl)-2,5,8-triazaspiro-[3.5]nonane-6,9-dione]",6600
17,"Cc1ncccc1N1CC2(C1)C(=O)N(C(C)C)CC(=O)N2Cc1ccc(Cl)cc1 [Compound 13, 5-(4-chlorobenzyl)-8-isopropyl-2-(2-methyl-pyridin-3-yl)-2,5,8-triazaspiro[3.5]nonane-6,9-dione]",7100
18,"Cc1ccc(N2CC3(C2)C(=O)N(C(C)C)CC(=O)N3Cc2ccc(Cl)cc2)cn1 [Compound 14, 5-(4-chlorobenzyl)-8-isopropyl-2-(6-methyl-pyridin-3-yl)-2,5,8-triazaspiro[3.5]nonane-6,9-dione]",6000
19,"Cc1ccnc(N2CC3(C2)C(=O)N(C(C)C)CC(=O)N3Cc2ccc(Cl)cc2)c1 [Compound 15, 5-(4-chlorobenzyl)-8-isopropyl-2-(4-methyl-pyridin-2-yl)-2,5,8-triazaspiro[3.5]nonane-6,9-dione]",2700

# The remaining lines, values ahead:
row,CDMF75 IC15 [nM],SMILES
1,>39000,"O=C1C(C2CC(O)C2)N(Cc2ccc(F)cc2)C(=O)CN1c1ccc(Cl)cc1F (single isomer, unassigned) [Compound 866B, 1-(4-chloro-2-fluorophenyl)-4-(4-fluorobenzyl)-3-(3-hydroxycyclobutyl)piperazine-2,5-dione]"
2,2300,"O=C1C(C2CC(O)C2)N(Cc2ccc(F)cc2)C(=O)CN1c1ccc(Cl)cc1F (single isomer, unassigned) [Compound 866C, 1-(4-chloro-2-fluorophenyl)-4-(4-fluorobenzyl)-3-(3-hydroxycyclobutyl)piperazine-2,5-dione]"
3,>39000,"O=C1C(C2CC(O)C2)N(Cc2ccc(F)cc2)C(=O)CN1c1ccc(Cl)cc1F (single isomer, unassigned) [Compound 866D, 1-(4-chloro-2-fluorophenyl)-4-(4-fluorobenzyl)-3-(3-hydroxycyclobutyl)piperazine-2,5-dione]"
4,2200,"NC(=O)[C@H]1C[C@]2(C1)C(=O)N(c1ncc(Cl)cc1F)CC(=O)N2Cc1ccc(C(F)F)cc1 (single isomer, unassigned) [Compound 875A, 8-(5-chloro-3-fluoropyridin-2-yl)-5-(4-(difluoromethyl)benzyl)-6,9-dioxo-5,8-diazaspiro[3.5]nonane-2-carboxamide]"
5,3200,"NC(=O)[C@H]1C[C@]2(C1)C(=O)N(c1ncc(Cl)cc1F)CC(=O)N2Cc1ccc(C(F)F)cc1 (single isomer, unassigned) [Compound 875B, 8-(5-chloro-3-fluoropyridin-2-yl)-5-(4-(difluoromethyl)benzyl)-6,9-dioxo-5,8-diazaspiro[3.5]nonane-2-carboxamide]"

# Same assay, conditions: Ca2+ activating to 75% of maximal rate, listed as 838A
row,CDMF75 IC15 [nM],SMILES
1,2300,"O=C1C(C23CC(O)(C2)C3)N(Cc2ccc(C(F)(F)F)cc2)C(=O)CN1c1ncc(Cl)cc1F (single isomer, unassigned) [Enantiomer 838A, 1-(5-chloro-3-fluoropyridin-2-yl)-3-(3-hydroxybicyclo[1.1.1]pentan-1-yl)-4-(4-(trifluoromethyl)benzyl)piperazine-2,5-dione]"

# Same assay, conditions: Ca2+ activating to 75% of maximal rate, listed as 838B
row,CDMF75 IC15 [nM],SMILES
1,>39000,"O=C1C(C23CC(O)(C2)C3)N(Cc2ccc(C(F)(F)F)cc2)C(=O)CN1c1ncc(Cl)cc1F (single isomer, unassigned) [Enantiomer 838B, 1-(5-chloro-3-fluoropyridin-2-yl)-3-(3-hydroxybicyclo[1.1.1]pentan-1-yl)-4-(4-(trifluoromethyl)benzyl)piperazine-2,5-dione]"

# Same assay, conditions: Ca2+ activating to 75% of maximal rate, listed as 867A
row,CDMF75 IC15 [nM],SMILES
1,2100,"O=C1CN(c2ccc(Cl)cc2F)C(=O)C2(CC(O)C2)N1Cc1ccc(F)cc1 (single isomer, unassigned) [Diastereomer 867A, 8-(4-chloro-2-fluorophenyl)-5-(4-fluorobenzyl)-2-hydroxy-5,8-diazaspiro[3.5]nonane-6,9-dione]"

# Same assay, conditions: Ca2+ activating to 75% of maximal rate, listed as 867B
row,CDMF75 IC15 [nM],SMILES
1,1700,"O=C1CN(c2ccc(Cl)cc2F)C(=O)C2(CC(O)C2)N1Cc1ccc(F)cc1 (single isomer, unassigned) [Diastereomer 867B, 8-(4-chloro-2-fluorophenyl)-5-(4-fluorobenzyl)-2-hydroxy-5,8-diazaspiro[3.5]nonane-6,9-dione]"
